As a reminder, the MIC is the smallest concentration in the dilution series that meets the test's criterion for growth inhibition. By ED50 is commonly meant the midpoint of the dose-response relation.

This is an account of results in patent publication EP0076452A2, “Cephalosporin derivatives, process for their preparation and pharmaceutical compositions containing them” (priority 1981, dated 1983).

In test [1] the test system is Escherichia coli 205. Nature of the test: Antibiotic activity in vitro, agar dilution method in DST agar (MIC). Format: cell-based. To be noted: for MIC Escherichia coli 205: in vitro. The text has this: (§1) A. Die antibiotische Aktivität der Testverbindungen in vitro wurde durch die Agarverdünnungsmethode nach Ericsson, H.M., und Sherris, S.C., 1971, Acta Path. Microb. Scand. Section B, Suppl. No. 217, Bd. 1-90, in DST Agar ermittelt. Die gefundenen, das Wachstum der Testorganismen noch hemmenden Minimalkonzentrationen (MIC = minimum inhibiting concentrations) werden in Mikrogramm pro Mililiter ([…]) für die geprüften Verbindungen in der Tabelle 1 angegeben.
Background: In agar dilution, organisms are placed on agar that contains the substance at set levels.

For the next test, the system named is Proteus rettgeri 856. The description is as above. Format: cell-based. Particulars: for MIC Proteus rettgeri 856: in vitro.
Text: as §1

The test system of test [2] is Streptococcus pyogenes Aronson. The description is as above. Format: cell-based. To be noted: for MIC: Streptococcus pyogenes, read-out: MIC Streptococcus pyogenes Aronson.
Text: as §1

Test [3] relates to Escherichia coli 205. Nature of the test: Chemotherapeutic efficacy in vivo against systemic infection in mice (ED50). Further details: species or system Maus. Particulars: for ED50: Escherichia coli, 205, sc, read-out: ED50 Escherichia coli 205. An excerpt:
(§2) B. Die chemotherapeutische Wirksamkeit in vivo gegen systemische Infektionen in weiblicher SPF, MF2 Mäusen wurde nach der Methode von Zak, 0. et al., 1979, Drugs Exptl. Clin. Res. 5, 45-59, ermittelt. Die gefundenen ED50-Werte in Milligramm Substanz pro Kilogramm Maus (mg/kg) für eine Anzahl von Mikroorganismen werden für die subcutan (s.c.) applizierten Testverbindungen in der Tabelle 2 angegeben.

For test [4], the system named is Staphylococcus aureus 10 B. Described as above. Further details: species or system Maus. To be noted: for ED50: Staphylococcus aureus, 10B, sc, read-out: ED50 Staphylococcus aureus 10 B; for ED50 Staphylococcus aureus 10 B: s.c.
Text: as §2

Setting [5] is: Escherichia coli, 205, in vitro, agar dilution, DST Agar, read-out: MIC Escherichia coli 205.
Setting [6] is: Providencia rettgeri, 856, in vitro, agar dilution, DST Agar, read-out: MIC Proteus rettgeri 856.
Where [7] appears, read: s.c., systemic infection, female SPF MF2 mice.
The mark [8] stands for this setting: systemic infection, female SPF MF2 mice.
The mark [9] stands for this setting: in vitro, agar dilution, DST Agar.
Where [10] appears, read: agar dilution, DST Agar, listed as 8.

Structures are written as SMILES. Values after ≈ are worked out from the molar mass of the structure shown. Like-named read-outs stand apart in the source and are kept apart here. Where only a bound is given, the exact number is not on record here.

As for `CON=C(C(=O)NC1C(=O)N2C(C(=O)[O-])=C(C[n+]3cccc(Cl)c3)CSC12)c1coc(N)n1` (stereo not shown) [Testverbindung 16, 3-(3-Chlorpyridiniomethyl)-7ß-[2-(2-amino-4-oxazolyl)-2-Z-methoxyiminoacetylamino]-3-cephem-4-carboxylat], the MIC in the test on Escherichia coli 205 [1] (Escherichia coli, 205, read-out: MIC Escherichia coli 205) came out at 8 µg/mL (≈ 16.2 µM); in the test on Proteus rettgeri 856 (Providencia rettgeri, 856, read-out: MIC Proteus rettgeri 856) it was 0.1 µg/mL (≈ 0.203 µM); in test [2] it was 0.2 µg/mL (≈ 0.406 µM). Also, the ED50 in the test on Escherichia coli 205 [3] came to 14 mg/kg; in test [4] it was 30 mg/kg.
For the compound `CC(=O)OCC1=C(C(=O)O)N2C(=O)[C@@H](NC(=O)/C(=N\O)c3coc(N)n3)[C@H]2SC1` [Testverbindung 6], the results for the MIC with Escherichia coli 205 [1] (setting [5]) and in the test with Proteus rettgeri 856 (setting [6]) were 0.1 µg/mL (≈ 0.235 µM) and 0.02 µg/mL (≈ 0.047 µM), respectively. Moreover, the ED50 in the test on Escherichia coli 205 [3] (setting [7]) is 1 mg/kg; in test [4] (setting [8]), 1.35 mg/kg.
Regarding `CO/N=C(/C(=O)N[C@@H]1C(=O)N2C(C(=O)O)=C(CSc3nnnn3CCN(C)C)CS[C@H]12)c1coc(N)n1` [Testverbindung 4], the MIC in the test with Escherichia coli 205 [1] (setting [5]) was 8 µg/mL (≈ 14.5 µM); in the test on Proteus rettgeri 856 (setting [6]), 2 µg/mL (≈ 3.62 µM); in test [2] (setting [9]) it was 0.05 µg/mL (≈ 0.0905 µM).
Take `CO/N=C(\C(=O)N[C@@H]1C(=O)N2C(C(=O)O)=C(CSc3nnnn3CCN(C)C)CS[C@H]12)c1coc(N)n1.Cl.Cl` [Testverbindung 3, 3-[1-(2-Dimethylaminoäthyl)-1H-tetrazol-5-ylthiomethyl]-7ß-[2-(2-amino-4-oxazolyl)-2-Z-methoxyiminoacetylamino]-3-cephem-4-carbonsäure-dihydrochlorid]: in the test on Escherichia coli 205 [1] (agar dilution, DST Agar), the “MIC Escherichia coli 205” value was 0,2 µg/ml. For the same compound, in the test with Proteus rettgeri 856 (agar dilution, DST Agar), the “MIC Proteus rettgeri 856” value is 0,01 µg/ml. Moreover, the “MIC Streptococcus pyogenes Aronson” value in test [2] (setting [9]) is reported as 0,05 µg/ml. The “ED50 Escherichia coli 205” value in the test on Escherichia coli 205 [3] (setting [7]) is more than 30 mg/kg. Moreover, the “ED50 Staphylococcus aureus 10 B” value in test [4] (setting [8]) was more than 30 mg/kg.
For `CO/N=C(\C(=O)N[C@@H]1C(=O)N2C(C(=O)OCOC(=O)C(C)(C)C)=C(COC(N)=O)CS[C@H]12)c1coc(N)n1` [Beispiel 18, 3-Carbamoyloxymethyl-7ß-[2-(2-amino-4-oxazolyl)-2-Z-methoxyimino-acetylamino]-3-cephem-4-carbonsäure-pivaloyloxymethylester], the “MIC Escherichia coli 205” value against Escherichia coli 205 [1] (agar dilution, DST Agar) is reported as 0,1 µg/ml. Also, in the test on Proteus rettgeri 856 (agar dilution, DST Agar), the “MIC Proteus rettgeri 856” value is recorded as 0,01 µg/ml. In addition, in test [2] (setting [9]), the “MIC Streptococcus pyogenes Aronson” value is reported as 0,02 µg/ml. Further, the “ED50 Escherichia coli 205” value with Escherichia coli 205 [3] (setting [7]) is on record as more than 30 mg/kg. The “ED50 Staphylococcus aureus 10 B” value in test [4] (setting [8]) is on record as 8 mg/kg.
Turning to `CO/N=C(\C(=O)N[C@@H]1C(=O)N2C(C(=O)[O-])=C(C[n+]3ccc(C(N)=O)cc3)CS[C@H]12)c1coc(N)n1` [Testverbindung 5], the “MIC Escherichia coli 205” value in the test on Escherichia coli 205 [1] (agar dilution, DST Agar) is 0,2 µg/ml. Further, the “MIC Proteus rettgeri 856” value with Proteus rettgeri 856 (agar dilution, DST Agar) was 0,02 µg/ml. Moreover, the “ED50 Escherichia coli 205” value in the test on Escherichia coli 205 [3] (setting [7]) was 2,4 mg/kg. The “ED50 Staphylococcus aureus 10 B” value in test [4] (setting [8]) was 5,5 mg/kg.
`CO/N=C(\C(=O)N[C@@H]1C(=O)N2C(C(=O)O)=CCS[C@H]12)c1coc(N)n1` [Testverbindung 14]: the MIC in the test on Escherichia coli 205 [1] (setting [5]) is 0.2 µg/mL (≈ 0.544 µM); in test [2] (setting [9]), 0.01 µg/mL (≈ 0.0272 µM). In addition, the ED50 in the test on Escherichia coli 205 [3] (setting [7]) amounted to 9 mg/kg; in test [4] (setting [8]) it was 30 mg/kg.
`CO/N=C(\C(=O)N[C@@H]1C(=O)N2C(C(=O)O)=C(CSc3nnnn3CCN(C)C)CS[C@H]12)c1coc(N)n1` [Testverbindung 3]: the MIC in the test on Escherichia coli 205 [1] (setting [5]) came to 0.1 µg/mL (≈ 0.181 µM); in the test on Proteus rettgeri 856 (setting [6]), 0.02 µg/mL (≈ 0.0362 µM); in test [2] (setting [9]) it was 0.02 µg/mL (≈ 0.0362 µM). Also, the ED50 in the test on Escherichia coli 205 [3] (setting [7]) was 1.7 mg/kg; in test [4] (setting [8]), 28 mg/kg.
On to `CC(C)(ON=C(C(=O)NC1C(=O)N2C(C(=O)[O-])=C(C[n+]3ccccc3)CSC12)c1coc(N)n1)C(=O)O` (stereo not shown) [Testverbindung 9, 3-Pyridiniomethyl-7ß-[2-(2-amino-4-oxazolyl)-2-Z-(2-carboxy-prop-2-yloxyimino)-acetylamino]-3-cephem-4-carboxylat-natriumsalz], for which the MIC came out at 0.2 µg/mL (≈ 0.377 µM) with Escherichia coli 205 [1] (setting [5]), 0.01 µg/mL (≈ 0.0188 µM) with Proteus rettgeri 856 (setting [6]) and 0.2 µg/mL (≈ 0.377 µM) in test [2] (setting [9]). Also, the ED50 was 4.4 mg/kg in the test with Escherichia coli 205 [3] (setting [7]) and more than 30 mg/kg in test [4] (setting [8]).
Regarding `CO/N=C(\C(=O)N[C@@H]1C(=O)N2C(C(=O)[O-])=C(C[n+]3ccc(C(N)=O)cc3)CS[C@H]12)c1coc(N)n1` [Testverbindung 5, 3-(4-Carbamoylpyridiniomethyl)-7β-[2-(2-amino-4-oxazolyl)-2-Z-methoxyiminoacetylamino]-3-cephem-4-carboxylat], in the test with Escherichia coli 205 [1] (setting [10]), the “MIC Escherichia coli 205” value came out at 4 µg/mL (≈ 7.98 µM). Moreover, the “MIC Proteus rettgeri 856” value in the test on Proteus rettgeri 856 (setting [10]) came to 1 µg/mL (≈ 1.99 µM). Also, in test [2] (setting [9]), the MIC was determined as 0.02 µg/mL (≈ 0.0399 µM). Besides, the “ED50 Escherichia coli 205” value with Escherichia coli 205 [3] (s.c., systemic infection, female SPF MF2 mice, listed as 8) is more than 30 mg/kg. Moreover, in test [4] (systemic infection, female SPF MF2 mice, listed as 8), the “ED50 Staphylococcus aureus 10 B” value is listed as more than 30 mg/kg.
Take `CC(C)(O/N=C(\C(=O)N[C@@H]1C(=O)N2C(C(=O)[O-])=C(C[n+]3ccc(C(N)=O)cc3)CS[C@H]12)c1coc(N)n1)C(=O)O` [Testverbindung 10]: the MIC in the test on Escherichia coli 205 [1] (setting [5]) came to 0.5 µg/mL (≈ 0.872 µM); in the test with Proteus rettgeri 856 (setting [6]) it was 0.5 µg/mL (≈ 0.872 µM); in test [2] (setting [9]), 0.2 µg/mL (≈ 0.349 µM). Moreover, the ED50 was 1.6 mg/kg in the test with Escherichia coli 205 [3] (setting [7]) and more than 30 mg/kg in test [4] (setting [8]).
Consider `CO/N=C(\C(=O)N[C@@H]1C(=O)N2C(C(=O)O)=C(CSc3nnnn3C)CS[C@H]12)c1coc(N)n1` [Testverbindung 1], for which, in the test on Escherichia coli 205 [1] (setting [5]), the MIC was found to be 0.1 µg/mL (≈ 0.202 µM). Also, the ED50 in the test with Escherichia coli 205 [3] (setting [7]) was 1.5 mg/kg; in test [4] (setting [8]), 12 mg/kg.
For `CC(C)(ON=C(C(=O)NC1C(=O)N2C(C(=O)[O-])=C(C[n+]3ccc(C(N)=O)cc3)CSC12)c1coc(N)n1)C(=O)O` (stereo not shown) [Testverbindung 10], the MIC amounted to 4 µg/mL (≈ 6.97 µM) with Escherichia coli 205 [1] (setting [5]), 0.2 µg/mL (≈ 0.349 µM) in the test on Proteus rettgeri 856 (setting [6]) and 0.02 µg/mL (≈ 0.0349 µM) in test [2] (setting [9]). For the same compound, the ED50 (in the test on Escherichia coli 205 [3] (setting [7]); in test [4] (setting [8])) was more than 30 mg/kg in each case.
Take `CC(C)(O/N=C(\C(=O)N[C@@H]1C(=O)N2C(C(=O)[O-])=C(C[n+]3ccccc3)CS[C@H]12)c1coc(N)n1)C(=O)O` [Testverbindung 9]: the MIC amounted to 1 µg/mL (≈ 1.88 µM) in the test with Escherichia coli 205 [1] (setting [5]), 0.2 µg/mL (≈ 0.377 µM) in the test with Proteus rettgeri 856 (setting [6]) and 0.5 µg/mL (≈ 0.942 µM) in test [2] (setting [9]). Moreover, the 50% effective dose (ED50) in the test on Escherichia coli 205 [3] (setting [7]) was 5.6 mg/kg; in test [4] (setting [8]) it was more than 30 mg/kg.
For the compound `CO/N=C(\C(=O)N[C@@H]1C(=O)N2C(C(=O)[O-])=C(C[n+]3ccc(C(=O)O)cc3)CS[C@H]12)c1coc(N)n1` [Testverbindung 17], the MIC was 0.5 µg/mL (≈ 0.995 µM) in the test on Escherichia coli 205 [1] (setting [5]), 0.02 µg/mL (≈ 0.0398 µM) with Proteus rettgeri 856 (setting [6]) and 0.05 µg/mL (≈ 0.0995 µM) in test [2] (setting [9]). Moreover, in test [4] (setting [8]), the ED50 is more than 30 mg/kg.
In the case of `CO/N=C(\C(=O)N[C@@H]1C(=O)N2C(C(=O)O)=C(COC(C)=O)CS[C@H]12)c1coc(N)n1` [Testverbindung 13], the MIC amounted to 0.1 µg/mL (≈ 0.228 µM) with Escherichia coli 205 [1] (setting [5]) and 0.01 µg/mL (≈ 0.0228 µM) in test [2] (setting [9]). Also, the ED50 was found to be 1 mg/kg in the test on Escherichia coli 205 [3] (setting [7]) and 5 mg/kg in test [4] (setting [8]).
`CON=C(C(=O)NC1C(=O)N2C(C(=O)[O-])=C(C[n+]3ccc(C(=O)O)cc3)CSC12)c1coc(N)n1` (stereo not shown) [Testverbindung 17, 3-(4-Carboxylatpyridiniomethyl)-7ß-[2-(2-amino-4-oxazolyl)-2-Z-methoxyiminoacetylamino]-3-cephem-4-carboxylat-natriumsalz]: the MIC with Escherichia coli 205 [1] (setting [5]) was 0.5 µg/mL (≈ 0.995 µM); in test [2] (setting [9]), 0.02 µg/mL (≈ 0.0398 µM). Also, the ED50 in the test with Escherichia coli 205 [3] (setting [7]) turned out to be 2 mg/kg; in test [4] (setting [8]) it was 5.5 mg/kg.
For `CO/N=C(\C(=O)N[C@@H]1C(=O)N2C(C(=O)O)=C(CSc3nnnn3CC(=O)O)CS[C@H]12)c1coc(N)n1` [Testverbindung 2] the same measures were 0.5 µg/mL (≈ 0.927 µM), 0.1 µg/mL (≈ 0.185 µM), 0.63 mg/kg and 55 mg/kg.
